Laboratory results as given in patent publication US20150157642A1, “COSMETIC METHOD FOR CHANGING THE APPEARANCE OF EYES” (priority 2011, published 2015).

What follows are compounds tested on eyelids (assay: topical application to the eyelids, eyelid retraction / eye-widening effect). Conditions: topically applied, alone or in combination.
Type: in vivo
Text: Topical treatments to which the current application is directed include ointments, creams, and solutions that contain one or more of the compounds travoprost, unoprostone, latanoprost, and bimatoprost, alone or in combination, and/or one or more chemically-related compounds and may also include pure forms of various additional types of prostaglandin, synthetic prostaglandin, and synthetic prostaglandin anologues. These ointments and solutions are topically applied to eyelids in order to treat ptosis and/or to improve facial appearance. The ointments and solution may include, in addition to the above-mentioned active ingredients, stabilizers, buffering compounds, salts, carriers, viscosity enhancers, colorants, emollients, emulsifiers, bactericidal and germicidal agents, preservatives, and other ingredients that improve shelf life, application, consistency, and compatibility with topical application, among other things. […] Either pure prostaglandin, synthetic prostaglandin, or synthetic prostaglandin analogues may be rubbed into the eyelid tissues or a relatively concentrated solution of prostaglandin in any of various organic solvents, including ethanol, or ethanol-water mixtures, can be applied to produce the effect. Prostaglandin, synthetic prostaglandin, or synthetic prostaglandin analogs may be additionally included in various eye shadows and other cosmetic products that are routinely applied to eyelids in order to produce the eye-widening cosmetic effect, as well as in many different mixtures, suspensions, solutions, powders, ointments, creams, and other substances.

SMILES | eyelid retraction (ameliorating ptosis and/or improving facial appearance)
CC(C)OC(=O)CCCC=CCC1C(O)CC(O)C1C=CC(O)COc1cccc(C(F)(F)F)c1 (stereo not shown) [travoprost, propan-2-yl 7-[3,5-dihydroxy-2-[3-hydroxy-4-[3-(trifluoromethyl)phenoxy]-but-1-enyl]-cyclopentyl]hept-5-enoate] | cause the eyelids to retract more completely
CC(C)OC(=O)CCC/C=C\C[C@@H]1[C@@H](CC[C@@H](O)CCc2ccccc2)[C@H](O)C[C@@H]1O [latanoprost, isopropyl (Z)-7-[(1R,2R,3R,5S)-3,5-dihydroxy-2-[(3R)3-hydroxy-5-phenylpentyl]-cyclopentyl]hept-5-enoate] | cause the eyelids to retract more completely
CCCCCCCC(=O)CC[C@@H]1[C@@H](C/C=C\CCCC(=O)OC(C)C)[C@@H](O)C[C@H]1O [unoprostone, isopropyl (Z)-7-[(1R,2R,3R,5S)-3,5-dihydroxy-2-(3-oxodecyl)cyclopentyl]hept-5-enoic acid] | cause the eyelids to retract more completely
CCNC(=O)CCCC=CCC1C(O)CC(O)C1C=CC(O)CCc1ccccc1 (stereo not shown) [bimatoprost, 7-[3,5-dihydroxy-2-(3-hydroxy-5-phenyl-pent-1-enyl)-cyclopentyl]-N-ethyl-hept-5-enamide] | cause the eyelids to retract more completely
